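96-well plates; 48 h exposure; 5 concentrations. Endpoints by linear interpolation between flanking doses. Not reached: highest tested concentration assigned. GI50 = concentration required for 50% inhibition of growth.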 Calls of active or inactive are those of the source. No stated cut-off is given here; in the data, active = GI50 up to about 1.1 µM and inactive = higher.

What all share (assay): inhibition of tumour cell growth, NCI panel, 48 h
In assay [1] the test system is SK-OV-3.
Assay [2] has as its system NCI-H460.
Assay [3] has as its system K562.
The test system of assay [4] is OVCAR-4.
In assay [5] the test system is SNB-75.
The subject of assay [6] is CCRF-CEM.
Assay [7] relates to IGROV-1.
In assay [8] the test system is ACHN.
For assay [9], the system named is SF-268.
For assay [10], the system named is A498.
The subject of assay [11] is LOX IMVI.
For assay [12], the system named is HCT-15.
Assay [13] relates to U-251.
In assay [14] the test system is SNB-19.
In assay [15] the test system is UACC-257.
For assay [16], the system named is KM12.
Assay [17] deals with SF-295.

As to `O=C(c1ccccc1)C(c1ccccc1)C1(O)C(=O)Nc2ccc([N+](=O)[O-])cc21` (stereo unspecified), the GI50 in [1] was 19.4 µM (inactive); in assay [2] it was > 100 µM (inactive); in assay [3], 42.7 µM (inactive); in assay [4], 64.6 µM (inactive); in assay [5], 61 µM (inactive); in assay [6] it was 41.9 µM (inactive). Besides, the GI50 in assay [7] was > 100 µM (inactive); in [8] it was 33 µM (inactive); in assay [9], > 100 µM (inactive); in assay [10] it was > 100 µM (inactive); in assay [11] it was 69.7 µM (inactive); in [12], more than 100 µM. Further, the GI50 in assay [13] and in [14] was > 100 µM (inactive) throughout.

As for `COc1cc2c(c(OC)c1OC)-c1ccc(SC)c(=O)cc1[C@@H](NCc1ccccc1[N+](=O)[O-])CC2`, the GI50 was 0.0041 µM (active) in assay [1]; 0.0168 µM (active) in [2]; 0.00369 µM (active) in assay [3]; 0.00561 µM (active) in assay [15]; 0.719 µM (active) in assay [4]; 0.00225 µM (active) in assay [5]. For the same molecule, the GI50 in assay [6] is 0.00532 µM (active); in assay [7], 0.0135 µM (active); in assay [8] it was 0.0439 µM (active); in assay [9] it was 0.0106 µM (active); in [10], 0.00417 µM (active); in [11], 0.00834 µM (active). Further, the GI50 was 0.00406 µM (active) in [16]; 0.0113 µM in [12]; 0.0154 µM (active) in assay [13]; 0.0246 µM (active) in [14]; 0.00826 µM (active) in assay [17].

Consider `O=C1OC(CC(=O)c2ccc(F)cc2)C(Cl)=C1Cl` (stereo unspecified), for which the GI50 in assay [1] was 49 µM (inactive); in [2], 21.5 µM (inactive); in [3], 33 µM (inactive); in assay [15], 16.9 µM (inactive); in [4] it was 19.6 µM (inactive); in assay [6], 29.4 µM (inactive). The GI50 in [7] is 27.2 µM (inactive); in assay [8] it was 34.4 µM (inactive); in assay [9], > 10 µM (inactive); in [11], 16.8 µM (inactive); in assay [16], 16.7 µM (inactive); in [12], 18.4 µM. The GI50 is 20 µM (inactive) in assay [13], 22.3 µM (inactive) in assay [14] and > 100 µM (inactive) in [17].

Regarding `COC(OC)C(C)CC(=O)N(C)C` (stereo unspecified), the GI50 in assay [1], in assay [2], in assay [3], in assay [4], in [5] and in assay [6] was > 100 µM (inactive) in each case. Moreover, the GI50 in assay [7], in assay [8], in assay [9], in assay [10], in assay [11] and in assay [16] was > 100 µM (inactive) throughout. The GI50 in assay [12] is more than 100 µM; in [13], > 100 µM (inactive); in assay [14], > 100 µM (inactive); in assay [17], > 100 µM (inactive).

`O=C(/C=C/c1ccc(OCCCOc2ccc(/C=C/C(=O)c3ccc(Cl)cc3)cc2)cc1)c1ccc(Cl)cc1`: the GI50 was > 100 µM (inactive) in [1]; > 100 µM (inactive) in assay [2]; > 100 µM (inactive) in assay [3]; > 100 µM (inactive) in assay [15]; > 100 µM (inactive) in [4]; 34.6 µM (inactive) in assay [5]. Also, the GI50 in [6], in assay [7], in assay [8], in assay [9], in assay [11] and in assay [16] was > 100 µM (inactive) in each case. For the same molecule, the GI50 in assay [12] was more than 100 µM; in [13], > 100 µM (inactive); in assay [14], > 100 µM (inactive); in assay [17] it was > 100 µM (inactive).

`[N-]=[N+]=N/C1=C/CCCCC(=O)C1`: the GI50 in assay [1], in assay [2], in assay [3], in assay [15], in assay [4] and in assay [5] was > 100 µM (inactive) throughout. Further, the GI50 is > 100 µM (inactive) in [6]; > 100 µM (inactive) in assay [7]; > 100 µM (inactive) in assay [9]; > 100 µM (inactive) in [11]; more than 100 µM in [12]; > 100 µM (inactive) in [14].

Regarding `O=C(CC(C(=O)c1ccsc1)c1cccs1)c1cccs1` (stereo unspecified), the GI50 was > 100 µM (inactive) in [1]; 49 µM (inactive) in assay [2]; 73.5 µM (inactive) in assay [3]; 51.4 µM (inactive) in assay [15]; 48.6 µM (inactive) in [4]; 28.1 µM (inactive) in assay [5]. The GI50 in assay [6] was 43.1 µM (inactive); in assay [7] it was > 100 µM (inactive); in assay [8], 99.1 µM (inactive); in assay [9], > 100 µM (inactive); in assay [10] it was 66.4 µM (inactive); in assay [11], 68.2 µM (inactive). The GI50 in assay [12] is 65.5 µM; in assay [13] it was > 100 µM (inactive); in [14], > 100 µM (inactive); in assay [17], 37.5 µM (inactive).

With `[O-][n+]1c2cc3c(cc2[n+]([O-])c2c(O)cccc21)CN(CCN1CCOCC1)C3`, the GI50 in assay [1] is 17.1 µM (inactive); in [2] it was 7.18 µM (inactive); in [3], 12 µM (inactive); in assay [15], 23.4 µM (inactive); in [4], 62.2 µM (inactive); in assay [5], 89.1 µM (inactive). Moreover, the GI50 was 6.12 µM (inactive) in [6]; 12.7 µM (inactive) in assay [7]; 5.83 µM (inactive) in assay [8]; 11.2 µM (inactive) in [9]; 44.6 µM (inactive) in assay [10]; 16.8 µM (inactive) in [16]. The GI50 in [12] is 27.4 µM; in assay [13], 12.1 µM (inactive); in [14], 73.5 µM (inactive); in assay [17] it was 13.1 µM (inactive).

As for `COC(=O)C12C3C4C1C1C2C3C41C(=O)N(C(C)C)C(C)C` (stereo unspecified), the GI50 is > 100 µM (inactive) in assay [1]; > 100 µM (inactive) in assay [2]; > 100 µM (inactive) in [3]; > 100 µM (inactive) in assay [15]; > 100 µM (inactive) in assay [4]; 50.2 µM (inactive) in assay [5]. The GI50 in assay [6], in assay [7], in assay [8], in assay [9], in assay [10] and in assay [16] was > 100 µM (inactive) in each case. Moreover, the GI50 is more than 100 µM in assay [12], > 100 µM (inactive) in [13], > 100 µM (inactive) in assay [14] and > 100 µM (inactive) in assay [17].

On to `C#CCNC(=O)NCCCCC(NC(=O)OCc1ccccc1)C(=O)OCc1ccccc1` (stereo unspecified), for which the GI50 in assay [1] is > 100 µM (inactive); in [2], 52.2 µM (inactive); in [3], > 66.2 µM (inactive); in assay [15] it was 33.2 µM (inactive); in assay [4] it was > 78.3 µM (inactive); in assay [5], > 72.4 µM (inactive). For the same molecule, the GI50 was 18.5 µM (inactive) in assay [6]; > 100 µM (inactive) in [7]; 27.7 µM (inactive) in assay [8]; > 100 µM (inactive) in assay [10]; 39.1 µM (inactive) in assay [11]; 29.8 µM (inactive) in assay [16]. The GI50 in assay [12] is more than 86.5 µM; in assay [13], > 64.6 µM (inactive); in assay [14], > 100 µM (inactive); in [17] it was > 100 µM (inactive).

On to `COC(=O)/C=C(C)/C=C/c1c(C)c(C(C)=O)c(C)n1C`, for which the GI50 in assay [1] was > 100 µM (inactive); in assay [3] it was 32.1 µM (inactive); in assay [15], > 100 µM (inactive); in [4], 80.9 µM (inactive); in assay [6], > 100 µM (inactive); in [7] it was > 100 µM (inactive). The GI50 in [8] was > 100 µM (inactive); in assay [9], > 100 µM (inactive); in assay [10], > 100 µM (inactive); in [11] it was > 100 µM (inactive); in assay [16], > 100 µM (inactive); in assay [12], more than 100 µM. The GI50 in [13], in [14] and in assay [17] was > 100 µM (inactive) throughout.

Take `Cc1ccc(C)c(NC(=O)/C(=N\NC(N)=S)C(C#N)c2ccccc2)c1` (stereo unspecified): the GI50 in assay [1], in assay [2], in assay [3], in [15], in [4] and in assay [5] was > 100 µM (inactive) throughout. Also, the GI50 in [6], in assay [7], in assay [8], in assay [9], in assay [10] and in assay [16] was > 100 µM (inactive) throughout. Also, the GI50 in [12] is more than 100 µM; in assay [13], > 100 µM (inactive); in [14], > 100 µM (inactive); in assay [17] it was > 100 µM (inactive).

With `COc1cc(C(O)C(=O)c2nc3ccc([N+](=O)[O-])cc3nc2O)ccc1O` (stereo unspecified), the GI50 is > 100 µM (inactive) in assay [1]; > 100 µM (inactive) in assay [2]; 57.1 µM (inactive) in assay [3]; > 10 µM (inactive) in assay [15]; > 100 µM (inactive) in [4]; 40.7 µM (inactive) in assay [6]. Also, the GI50 in assay [7] was > 100 µM (inactive); in assay [8], 54.2 µM (inactive); in assay [9] it was > 100 µM (inactive); in assay [10], 34.6 µM (inactive); in [11] it was 40.1 µM (inactive); in [16] it was > 100 µM (inactive). Further, the GI50 in assay [12] was more than 100 µM; in assay [13], > 100 µM (inactive); in [14], > 100 µM (inactive); in [17], > 100 µM (inactive).
